Data taken from patent publication US9089544B2, “Composition” (Slotervaart Participaties BV, priority 2007, dated 2015).
Several values for one entry are separate records, joined by “and”; a condition that tells them apart may be missing. Identical values can stand only once.

Assays:
[1] = Docetaxel solubility (dissolution) test of formulations A to N in 25 mL WfI; format: physicochemical; conditions: 37° C., 720 rpm; for maximum docetaxel concentration / maximum docetaxel concentration as % of total docetaxel present: ±6 mg docetaxel
Method: A magnetic stirring bar and 25 mL water were added to the beaker. The solution was stirred at 720 rpm, and kept at approximately 37° C. Samples were collected at various timepoints, and filtrated using a 0.45 μm filter before they were diluted with a 1:4 v/v mixture of methanol and acetonitrile. The filtrated and diluted samples were subsequently analyzed by HPLC-UV (see table 17).

[2] = clinical; conditions: human, in vivo, 100 mg
Method: Oral ritonavir: 1 capsule with 100 mg ritonavir (Norvir®).
Ritonavir dose: 1 capsule with 100 mg ritonavir (Norvir®).
After drug administration blood samples were collected for pharmacokinetic analyses. A blank sample was taken before dosing. Blood samples were centrifuged, plasma was separated and immediately stored at −20° C. until analyses. Analysis were performed with validated HPLC methods in a GLP (Good Laboratory Practice) licensed laboratory. This concerns all pharmacokinetic studies presented here by the inventors.

[3] = Clinical phase I trial: docetaxel liquid formulation versus MODRA capsules with ritonavir (Example 5); format: in vivo, human; conditions: 20 mg docetaxel liquid formulation, patient 306
Method: 10 patients participated in an ongoing clinical phase I trial.
The final mixture was transferred to a stainless steel lyophilisation box (Gastronorm size 1/3), t-butanol and water were subsequently removed by lyophilisation (see table. 16).
Patients took the medication orally on an empty stomach in the morning with 100 mL tap water.
Patients 307, 308, 309 and 310 received liquid formulation and/or MODRA. Cycles were administered in a weekly interval.
According to institutional guidelines, for both oral and i.v. docetaxel all patients were treated with oral dexamethason. A dose of 4 mg dexamethason was given 1 hour prior to the study drugs, followed by 4 mg every 12 hours (2 times).
A blank sample was taken before dosing.
According to institutional guidelines, for both oral and i.v. docetaxel, all patients were treated with oral dexamethason. A dose of 4 mg dexamethason was given 1 hour prior to the study drugs, followed by 4 mg every 12 hours (2 times).

[4] = human, in vivo
Method: (§1) Pharmacokinetic (PK) analysis of the data generated from the above trial was performed using the NONMEM (non-linear mixed effect modelling) program (GloboMax LLC, Hanover, Md., USA) to produce a pharmacokinetic profile. This models the absorption, elimination and distribution of a drug using different compartments.
(§2) This model uses three compartments and is well described by Bruno et al. [85].

[5] = mice; cited from earlier work
[6] = cited from earlier work
[7] = cited from earlier work; remark: listed apart in the source
[8] = clinical; conditions: human, in vivo, po, 100 mg
Method: as §1, §2

[9] = cited from earlier work; remark: listed apart in the source
[10] = cited from earlier work; remark: listed apart in the source
[11] = oral docetaxel 75 mg/m^2, CsA 15 mg/kg

## CC(=O)O[C@@]12CO[C@@H]1C[C@H](O)[C@@]1(C)C(=O)[C@H](O)C3=C(C)[C@@H](OC(=O)[C@H](O)[C@@H](NC(=O)OC(C)(C)C)c4ccccc4)C[C@@](O)([C@@H](OC(=O)c4ccccc4)[C@H]21)C3(C)C [Formulation A, docetaxel]
[1]
  equilibrium docetaxel concentration: approximately 6 μg/mL
  equilibrium docetaxel concentration as % of total docetaxel present: ~2%
  time at which equilibrium concentration is reached: 15 min
  time of stirring at which maximum concentration is reached: 5 min
  maximum docetaxel concentration: approximately 12 μg/mL
  maximum docetaxel concentration as % of total docetaxel present: ~4.7%

## CC(=O)O[C@@]12CO[C@@H]1C[C@H](O)[C@@]1(C)C(=O)[C@H](O)C3=C(C)[C@@H](OC(=O)[C@H](O)[C@@H](NC(=O)OC(C)(C)C)c4ccccc4)C[C@@](O)([C@@H](OC(=O)c4ccccc4)[C@H]21)C3(C)C [Formulation B, docetaxel]
[1]
  solubility from 10 to 60 minutes: comparable to formulation A
  time of stirring at which maximum concentration is reached: 0.5 min
  maximum docetaxel concentration: 32 µg/mL
  maximum docetaxel concentration as % of total docetaxel present: 13%

## CC(=O)O[C@@]12CO[C@@H]1C[C@H](O)[C@@]1(C)C(=O)[C@H](O)C3=C(C)[C@@H](OC(=O)[C@H](O)[C@@H](NC(=O)OC(C)(C)C)c4ccccc4)C[C@@](O)([C@@H](OC(=O)c4ccccc4)[C@H]21)C3(C)C [docetaxel]
[2]; iv, AUC IV day 15
  AUC: 2100 ng·h/mL
[2]; iv, Tmax IV day 15
  Tmax: 48 min
[2]; po, AUC docetaxel oral without ritonavir
  AUC: 290 ± 260 ng·h/mL
[3]
  increase of docetaxel AUC by second boosting dose of 100 mg ritonavir 4 hours after docetaxel: 1.5 fold
[4]
  volume of the central compartment, oral administration: ~60 L
[5]
  apparent bioavailability without ritonavir: 4%
  increase of AUC of oral docetaxel by coadministration with CsA: ninefold
[6]; [11]
  apparent bioavailability of oral docetaxel with CsA: 90%
  increase of the systemic exposure of docetaxel with oral CsA: 7.3 fold
[6]; oral docetaxel 75 mg/m^2
  apparent bioavailability of oral docetaxel without CsA: 8%
[6]; range observed after i.v. administration, oral in the same range
  inter- and intra-patient variabilities in the AUC of docetaxel: 29%-53%
[7]; 100 mg oral docetaxel + CsA 15 mg/kg, weekly
  docetaxel AUC: about 2.3 mg·h/L
[7]; weekly 100 mg oral docetaxel + CsA 15 mg/kg, breast cancer
  overall response rate: 50% and 52%
[8]
  bioavailability: 14%

## CC(=O)O[C@H]1C(=O)[C@@]2(C)[C@H]([C@H](OC(=O)c3ccccc3)[C@]3(O)C[C@H](OC(=O)[C@H](O)[C@@H](NC(=O)c4ccccc4)c4ccccc4)C(C)=C1C3(C)C)[C@]1(OC(C)=O)CO[C@@H]1C[C@@H]2O [paclitaxel]
[9]; mdr1a P-gp knockout mice
  increase of AUC in knockout mice compared with wild-type mice, i.v. administration: twofold
  increase of AUC in knockout mice compared with wild-type mice, oral administration: sixfold
[9]; mouse, in vivo, po
  oral bioavailability in wild-type mice when CsA was coadministered: 67%
  oral bioavailability in wild-type mice with GF120918: 40%
  oral bioavailability in wild-type mice, paclitaxel alone: 9% and 8.5%
[9]; oral administration
  fraction of unchanged paclitaxel recovered from the faeces, mdr1a P-gp knockout mice: 3%
[10]; 60 mg/m^2 oral paclitaxel, 15 mg/kg CsA
  apparent bioavailability of oral paclitaxel with CsA: 47%
[10]; 60 mg/m^2 oral paclitaxel
  apparent bioavailability of oral paclitaxel without CsA: 4%
[10]; oral paclitaxel in combination with CsA
  maximum tolerated dose: 300 mg/m^2

## CC(C)c1nc(CN(C)C(=O)N[C@H](C(=O)N[C@@H](Cc2ccccc2)C[C@H](O)[C@H](Cc2ccccc2)NC(=O)OCc2cncs2)C(C)C)cs1 [ritonavir]
[2]; po
  Ritonavir Cmax Simultaneous: 200 ng/mL
